Read-outs that look alike come from different tables or passages of the source. Each block holds one compound with its values, some of them ahead of it.
Experiments:
[1] = Test Example 2b, absorbability of solid dispersion containing Compound 14 in rats; assay type: in vivo, rats (Crl:CD (SD)); conditions: rat, single oral, 30 mg/kg as Compound 14, fasted
Protocol: A single dose of 10 mg/kg or 30 mg/kg, as Compound 14, of the solid dispersions of Reference Example 2b and Comparative Reference Example 10b and the sample of Comparative Reference Example 11b suspended in a 1% carboxymethylcellulose aqueous solution was orally administered to fasted male rats (8 weeks old, Crl:CD (SD), Japan Charles River Laboratories). A crystalline drug substance of Compound 14 was used as a control (Comparative Reference Example 12b). A collection time was 0.5, 1, 2, 4, 8, and 24 hours after administration, and about 300 μL of blood was collected at each time point from vena caudalis (n=3). The obtained blood was centrifuged at 1500×g, 4° C. for 15 minutes to obtain a plasma. The concentration of Compound 14 in the plasma was measured by HPLC (Shiseido Company, Limited and Hitachi High-Technologies Corporation). A time to reach the highest concentration in the plasma (Tmax), the highest concentration in the plasma (Cmax) and an area under the plasma concentration-time curve (AUC) were calculated from the change in the concentration in the obtained plasma. Here, values in the table are the mean value±standard deviation of three examples.

serum uric acid level [2] = assay: Reference Example 14, action of lowering serum uric acid level in healthy adult males; assay type: in vivo; conditions: for maximum rate of decrease in a blood uric acid level: solid dispersion capsules of Formulation Example 1
Protocol: For comparative reference, the results are shown in FIG. 9 together with the result of a case described in Non Patent Literature 3 in which febuxostat (40 mg) was used.

plasma uric acid level = assay: Reference Example 15, plasma uric acid in oxonic acid-induced hyperuricemic rats, 28-day repeated administration; assay type: in vivo, oxonic acid-induced hyperuricemic rats (Crl:CD (SD)); conditions: oral once a day for 28 days, non-fasting; Compound 14 0.3 mg/kg; Days 1, 7, 14, 21, 28
Protocol: Compound 14 suspended in a 1% aqueous methylcellulose solution was orally administered to oxonic acid-induced hyperuricemic rats at a dose of 0.3 mg/kg once a day for 28 days under non-fasting conditions. As a control, a 1% aqueous methylcellulose solution was used, and as a positive control, febuxostat was used.
As rats, male Crl:CD (SD) rats (produced by Charles River Laboratories Japan, Inc.) were used. The rats were purchased at the age of 6 weeks, and the administration was started at the age of 7 weeks.
Potassium oxonate was prepared by adding and suspending 10 g of potassium oxonate (Sigma-Aldrich Corp., Lot No. 03810 HD) to 200 mL of 1% methyl cellulose (1% MC) with a mixer. […]
The collection time points were set to before administration (1 hour before) and 2 and 6 hours after administration on Days 1, 7, 14, 21, and 28, and blood was collected in an amount of about 300 μL per time point from the tail vein (n=7). […] The concentration of uric acid in the plasma was measured by HPLC (Shiseido Co., Ltd., current OSAKA SODA).
To acquire the predose value and data for grouping, a 1% aqueous methylcellulose solution was orally administered to all rats 5 days before the start of administration, and the uric acid concentration in the plasma was measured according to the above-described method such as subcutaneous administration of potassium oxonate. […]

[3] = test system: MOVAS-1 cells having XOR activity; assay: Example 1, ATP enhancing action in hypoxic condition; assay type: cell-based; conditions: 1% oxygen, 4 hours
Protocol: MOVAS-1 cells having XOR activity were used for Examples. All examinations were performed at n=3 for each number of samples. The medium of MOVAS-1 cells in a confluent state (with D-MEM/low glucose/10% FBS/100 μM Oxionate) was divided into a medium for a hypoxanthine addition group and a medium for a hypoxanthine non-addition group, 50 μM hypoxanthine, and 6 μM Compound 14, 10 μM febuxostat, or 100 μM allopurinol were added to the medium of the hypoxanthine addition group, and 6 μM Compound 14, 10 μM febuxostat, or 100 μM allopurinol was added to the medium of the hypoxanthine non-addition group. For the control of each group, only 50 μM hypoxanthine was added to the hypoxanthine addition group, and nothing was added to the hypoxanthine non-addition group. Thereafter, the media were allowed to stand for 4 hours under mixed gas conditions of 1% oxygen, 5% carbon dioxide, and 94% nitrogen. After deproteinization by PCA, ATP, ADP and AMP concentrations were measured using HPLC.

[4] = test system: MOVAS-1 cells having XOR activity; assay: Example 2, ATP enhancing action in presence of uncoupler (CCCP); assay type: cell-based; conditions: 6 μM Compound 14, CCCP 10 μM, 30 minutes; versus control of the CCCP addition group
Protocol: MOVAS-1 cells having XOR activity were used for Examples. All examinations were performed at n=3 for each number of samples. The medium of MOVAS-1 cells in a confluent state (with D-MEM/low glucose/10% FBS/100 uM Oxionate) was divided into a medium for a CCCP addition group and a medium for a CCCP non-addition group, and 6 μM Compound 14 was added to the media. Nothing was added to the control of each group. Thereafter, to the CCCP addition group, CCCP was added so as to have a final concentration of 10 μM. After standing for 30 minutes, deproteinization was performed by PCA, and then ATP, ADP, and AMP concentrations were measured using HPLC.

RCS rats = assay: Example 3, suppressive action on retinal degeneration; assay type: in vivo; conditions: oral once a day for 18 days, 1 mg/100 g body weight as Compound 14 (solid dispersion of Formulation Example 1); versus control, p<0.05, n=4
Protocol: (§1) Three week old RCS rats (CLEA Japan, Inc., male) were purchased and randomly divided into a control group and a Compound 14 administration group. From 3.5 weeks of age, control and Compound 14 were orally administered daily once a day for 18 days. To the control group, 1% methylcellulose (Metrose (SM-15) manufactured by Shin-Etsu Chemical Co., Ltd.) was administered, and to the Compound 14 administration group, a preparation in which a solid dispersion of Compound 14 described in “Formulation Example 1” described later was suspended in 1% methylcellulose was administered at a dose of 5 mg/100 g body weight (1 mg/100 g body weight as Compound 14) per administration. Because xanthine stones are likely to occur in rodents due to XOR inhibition, Uralyt-U combination powder (manufactured by Nippon Chemiphar Co., Ltd.) was administered to both groups in drinking water at a concentration of 1% (w/v) in order to prevent/reduce xanthine stones. On Day 19 after completion of administration for 18 days, eyeballs of both eyes were collected from both groups, and a tissue image was observed on one eyeball.

eyeball = assay: Example 4, measurement of concentration of various molecules in eyeball; assay type: in vivo, RCS rats; set-up: unit not given here; conditions: Day 19 after 18 days oral administration
Protocol: as §1
Concentrations of various molecules in one eyeball collected in Example 3 were measured. The eyeball stored at −80° C. was freeze-pulverized, a 5% perchloric acid solution in an amount of 2 times (w/w) was added, and the mixture was vortexed. The supernatant obtained by centrifugation at 15000 rpm and 4° C. for 5 minutes was neutralized with a 3 M potassium carbonate solution. The mixture was centrifuged again at 15000 rpm and 4° C. for 5 minutes, and the supernatant was equilibrated with 0.5 M sodium phosphate buffer to prepare an eyeball extraction solution. ATP, ADP, AMP, IMP, inosine, hypoxanthine, xanthine, uric acid, GTP, GDP, and GMP in the solution were measured by HPLC (HPLC: Shimadzu Corporation LC-20AD, Diode array detector: Shimadzu Corporation SPD-M20A), and the energy charge was calculated (Calculation formula: ([ATP]+½ [ADP])/([ATP]+[ADP]+[AMP])).

serum = assay: Example 5, concentration of hypoxanthine and inosine in serum; assay type: in vivo, RCS rats; conditions: Day 11 after 10 days daily oral administration
Protocol: In the same manner as in Example 3, to RCS rats, control or Compound 14 was orally administered daily for 10 days, and Uralyt-U combination powder (manufactured by Nippon Chemiphar Co., Ltd.) was administered in drinking water. On Day 11 after completion of administration for 10 days, blood was collected from both groups to prepare serum.

[5] = Distribution of administered Compound 14 in the eyeball; assay type: in vivo; conditions: Compound 14 administered to the rat
serum uric acid level [6] = conditions: febuxostat 40 mg, case described in Non Patent Literature 3; first day of the administration (about 15 hours after the administration); cited from earlier work

- AUClast [1]: 15369 ± 7776 ng·h/mL
- Cmax [1]: 1724 ± 65 ng/mL
SMILES: N#Cc1cc(-c2nc3c(O)ncnc3s2)ccc1Oc1ccccc1 [Comparative Reference Example 11b, 2-(3-Cyano-4-phenoxyphenyl)-7-hydroxythiazolo[5,4-d]pyrimidine]

- AUClast [1]: 1157 ± 261 ng·h/mL
- Cmax [1]: 239 ± 99 ng/mL
- Tmax [1]: 4.7 ± 3.1 h
SMILES: N#Cc1cc(-c2nc3c(O)ncnc3s2)ccc1Oc1ccccc1 [Comparative Reference Example 12b, 2-(3-Cyano-4-phenoxyphenyl)-7-hydroxythiazolo[5,4-d]pyrimidine]

- distribution in the eyeball [5]: hardly distributed in the eyeball
SMILES: N#Cc1cc(-c2nc3c(O)ncnc3s2)ccc1Oc1ccccc1 [Compound 14, 2-(3-Cyano-4-phenoxyphenyl)-7-hydroxythiazolo[5,4-d]pyrimidine]
- serum uric acid level over the administration period (serum uric acid level [2]; 40 mg once daily for 7 days, capsules containing micronized Compound 14): gradually decreased over time throughout the administration period
- maximum rate of decrease in a blood uric acid level (serum uric acid level [2]; 80 mg once daily for 7 days, seventh day (about 8 hours after the administration)): about 30%
- maximum rate of decrease in a blood uric acid level (serum uric acid level [2]; 80 mg once daily, first day of the administration (12 hours after the administration)): about 17%
- rate of change of the plasma uric acid level AUC (−1) to 6 with respect to the control group (plasma uric acid level): increased with repeated administration
- ATP enhancing action (ATP, ADP and AMP concentrations) ([3]; 6 μM Compound 14 versus 10 μM febuxostat or 100 μM allopurinol, with or without 50 μM hypoxanthine): exhibited effects at doses lower than febuxostat and allopurinol
- ATP enhancing action in hypoxic condition, hypoxanthine in combination ([3]; 50 μM hypoxanthine, 6 μM Compound 14 versus 10 μM febuxostat): significant difference between Compound 14 and febuxostat
- total adenylate concentration [4]: higher than the total adenylate concentration of the control group of the CCCP addition group
- thinning of the outer nuclear layer and the cone-rod layer in the retinal tissue (RCS rats): significantly suppressed
- GTP (eyeball; NS p = 0.069 vs control): 53.157 ± 8.352
- Hypoxanthine (eyeball; NS p = 0.081 vs control): 8.450 ± 3.244
- Xanthine (eyeball; NS p = 0.095 vs control): 1.739 ± 0.590
- GMP (eyeball; p = 0. 000 vs control): 2.458 ± 1.898
- IMP (eyeball; p = 0.002 vs control): 3.640 ± 1.122
- ADP (eyeball; p = 0.004 vs control): 55.134 ± 7.253
- AMP (eyeball; p = 0.010 vs control): 27.828 ± 8.547
- Uric acid (eyeball; p = 0.027 vs control): 1.344 ± 0.444
- ATP (eyeball; p = 0.033 vs control): 175.809 ± 25.506
- GDP (eyeball; p = 0.036 vs control): 8.115 ± 1.245
- Inosine (eyeball; p = 0.047 vs control): 13.063 ± 4.690
- increase of the concentration of hypoxanthine in the serum versus control (serum): about 7 times
- increase of the concentration of inosine in the serum versus control (serum): about 38 times
- Hypoxanthine, Serum (n = 4) (serum; p = 0.023 vs control): 92.020 ± 47.670
- Inosine, Serum (n = 4) (serum; p = 0.026 vs control): 9.950 ± 6.280

SMILES: Cc1nc(-c2ccc(OCC(C)C)c(C#N)c2)sc1C(=O)O [febuxostat, reference compound]
- rate of change of the plasma uric acid level AUC (−1) to 6 with respect to the control group (plasma uric acid level): no clear increase was observed
- maximum rate of decrease in a blood uric acid level (serum uric acid level [6]): about 35%

Reference: patent US20240051971A1, “INTRACELLULAR ATP ENHANCER” (School Juridical Person Higashi-Nippon-Gakuen, priority 2020, published 2024)
